Laboratory results from article PMC4183699, “A Relay Network of Extracellular Heme-Binding Proteins Drives C. albicans Iron Acquisition from Hemoglobin” (PLoS Pathogens, 2014).

T1: Rbt5(23–219)-Myc-6×His (C. albicans, UniProt Q59UT4 23-219)
T1 construct: Rbt5, C. albicans CFEM protein, residues 23-219: from the predicted signal peptide cleavage site to the predicted GPI anchor addition site; RBT5 nucleotides +67 to +657 cloned EcoRI-XbaI into pPICZalphaA (KB2258); Apo-protein (heme removed with 3 M imidazole); The vector pPICZalphaA may leave a few residues at the N-terminus after the alpha-factor signal is cut; also called rRbt5; recombinant …
T1 sequence: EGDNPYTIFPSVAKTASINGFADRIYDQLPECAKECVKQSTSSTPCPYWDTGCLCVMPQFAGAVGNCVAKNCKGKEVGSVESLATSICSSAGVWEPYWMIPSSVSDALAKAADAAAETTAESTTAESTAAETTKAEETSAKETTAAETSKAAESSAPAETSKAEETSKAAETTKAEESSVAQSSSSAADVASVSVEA

B1: Pga7(18–195)-Myc-6×His (domain or fragment)
chain: NFGTYPKVPKTASINGFADPIYDLLPDCAKECVKFSTSNTPCPYWDTGCFCVMPQWAGLVGQCVAQKCKGEDVASARFLATSLCSVVGANTWMMPASISSMLSTAAGDAKEVTTIEGKTAKSWVTAPGSAAGSVVSETGSASETGSSESAQSTTTGSSSTGSSSTDSSSSSSSSPSSS
notes: Pga7, C. albicans CFEM protein, residues 18-195: from the predicted signal peptide cleavage site to the predicted GPI anchor addition site; PGA7 nucleotides +52 to +585 cloned EcoRI-XbaI into pPICZalphaA (KB2259); Used as apo-protein (heme removed) or as holo-protein (loaded with heme, not covalent); both are this one construct; The vector pPICZalphaA may leave a few residues at the N-terminus …

Experiments:
[1] = molecular target: T2, Pga7 (Candida albicans, UniProt Q59UT5); experiment: ITC; also Soret-shift UV-Vis titration ([…]), 1H NMR, hemin-agarose pull-down; assay type: binding
T2 construct: Pga7_18–195 (C-terminal Myc-6×His, expressed in Pichia pastoris)

[2] = molecular target: T3, Rbt5 (Candida albicans, UniProt Q59UT4); experiment: ITC; also hemin-agarose pull-down, size exclusion co-elution, Soret peak; assay type: binding
T3 construct: Rbt5_23–219 (C-terminal Myc-6×His, expressed in Pichia pastoris)

[3] = molecular target: T1, Rbt5(23–219)-Myc-6×His; experiment: SPR; Biacore T200; apo-Pga7(18–195), apo-Rbt5(23–219) and apo-Rbt5(23–219) D72A immobilised on a CM-5 chip by amine chemistry; 3 µM holo-Pga7(18–195) (with heme) injected for 60 sec; double-blanked against an empty cell and buffer; settings: both partners purified

Molecule	Kd [1] [nM]	Kd [2] [nM]	binding result [3]
C=CC1=C(C)C2=Cc3c(C=C)c(C)c4[n]3[Fe]([Cl])[n]3c(c(C)c(CCC(=O)O)c3=CC3=NC(=C4)C(C)=C3CCC(=O)O)=CC1=N2 [hemin]	65	5400	
B1			binds
